The values that follow come from US9688743B2, “Optical biosensors” (Carnegie Mellon University, priority 2007, dated 2017).

Data set [1] relates to living NIH3T3 cells. The data set is described as follows: Entry of fluorogen controls into living cells. The format is cell-based, mouse.
For data set [2] the following is noted: comparison value; cited from earlier work.
Data set [3] concerns JAR200 cells. Description: Effect of fluorogens on yeast cell growth. The data set is classed as cell-based. To be noted: 500 nM fluorogen, 30° C. The protocol: FIG. 17 is a graph depicting the effect of fluorogens on yeast cell growth. JAR200 cells are inoculated at ˜10^6 cells/ml into 35 ml SD+CAA medium in 125 ml baffled flasks and allowed to grow at 30° C. at 300 RPM for 2 hours prior to addition of fluorogens at the indicated concentrations. One ml samples are removed at indicated time points, and growth halted by addition of 75 μl of 300 mM NaN3 prior to reading absorbance. Doubling time of about 1.9 hrs is unchanged by most fluorogen treatments. For 500 nM MG-ester, the doubling time is about 2.8 hrs; and for 500 nM MG, the doubling time is over 24 hrs.

With “2-[(1-(18-amino-4,9-diaza-12,15-dioxa-5,8-dioxo-octadecanyl)-4(111)-quinolinylidene)methyl-3-(3-sulfopropyl)benzothiazolinium]trifluoroacetate [TO1-2p]”, the “entry into living cells” value in data set [1] is “did not enter living NIH3T3 cells”.
For the compound `O=C(O)c1ccccc1-c1c2ccc(=O)c([As]3SCCS3)c-2oc2c([As]3SCCS3)c(O)ccc12` [F1AsH-EDT2], the “fluorescence increase on binding cognate tetracysteine peptide” value in data set [2] is 50,000 fold.
As to `CN(C)c1ccc(C(=C2C=CC(=[N+](C)C)C=C2)c2ccccc2)cc1` [MG, malachite green, reference compound], in data set [3], the doubling time result is “over 24 hrs”.
The same measure, in the same setting: the entry for `CCOC(=O)CCCc1ccc([C+](c2ccc(N(C)C)cc2)c2ccc(N(C)C)cc2)cc1.[Cl-]` [MG-ester, Methylium, bis[4-(dimethylamino)phenyl](4-(3-carboethoxypropyl)phenyl)-chloride] is “about 2.8 hrs”.
